Measured values: ChEMBL document CHEMBL1201862, “PubChem BioAssay data set” (2004)
The source made the active and inactive calls.

Key:
Estrogen receptor = target: T1, Estrogen receptor (Homo sapiens, UniProt P03372);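 further: potency for inhibiting coactivator peptide recruitment to the receptor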
T1 sequence (P03372 whole entry): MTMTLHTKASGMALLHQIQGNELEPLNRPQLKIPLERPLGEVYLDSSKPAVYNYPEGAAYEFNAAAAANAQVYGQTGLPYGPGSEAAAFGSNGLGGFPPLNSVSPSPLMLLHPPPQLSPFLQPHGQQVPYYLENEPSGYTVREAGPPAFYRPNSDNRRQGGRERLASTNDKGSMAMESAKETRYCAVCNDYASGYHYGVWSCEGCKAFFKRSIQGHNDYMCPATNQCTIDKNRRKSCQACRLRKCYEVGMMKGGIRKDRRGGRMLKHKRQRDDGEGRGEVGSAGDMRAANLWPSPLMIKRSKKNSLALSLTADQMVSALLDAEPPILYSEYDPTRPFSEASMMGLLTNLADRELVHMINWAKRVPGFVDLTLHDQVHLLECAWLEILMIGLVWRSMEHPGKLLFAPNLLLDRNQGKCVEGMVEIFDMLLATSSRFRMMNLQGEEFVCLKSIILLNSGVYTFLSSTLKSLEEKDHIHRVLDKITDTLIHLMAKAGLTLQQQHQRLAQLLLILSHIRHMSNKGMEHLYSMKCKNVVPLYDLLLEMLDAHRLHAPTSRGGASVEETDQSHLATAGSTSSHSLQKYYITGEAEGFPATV

[1] = target: T2, Sentrin-specific protease 8 (Homo sapiens, UniProt Q96LD8); assay: inhibition of human SENP8 cleavage activity – biochemical, luminescence, SAR follow-up (AID 504501); format: functional
T2 sequence (Q96LD8 whole entry): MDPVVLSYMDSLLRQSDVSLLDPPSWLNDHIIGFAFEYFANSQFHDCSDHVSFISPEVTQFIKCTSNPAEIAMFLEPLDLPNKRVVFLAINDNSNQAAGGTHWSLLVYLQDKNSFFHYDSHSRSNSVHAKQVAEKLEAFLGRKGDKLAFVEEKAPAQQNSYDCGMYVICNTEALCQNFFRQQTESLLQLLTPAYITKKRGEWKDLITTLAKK

Caspase-3 = target: T3, Caspase-3 (Homo sapiens, UniProt P42574); assay: SAR Analysis of small molecule inhibitors of Sentrin-specific proteases (SENPs) using a Caspase-3 Selectivity assay. [Related pubchem assays (depositor defined):AID2540, AID2599, AID434973, AID489001]; format: functional
T3 sequence (P42574 whole entry): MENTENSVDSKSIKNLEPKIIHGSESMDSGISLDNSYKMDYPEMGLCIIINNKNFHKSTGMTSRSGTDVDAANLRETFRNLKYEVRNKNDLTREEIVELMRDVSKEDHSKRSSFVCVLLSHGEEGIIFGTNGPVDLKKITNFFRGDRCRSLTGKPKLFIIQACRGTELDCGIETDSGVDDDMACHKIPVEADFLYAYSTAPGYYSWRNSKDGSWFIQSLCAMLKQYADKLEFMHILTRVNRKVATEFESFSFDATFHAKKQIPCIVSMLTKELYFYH

[2] = target: T4, Sentrin-specific protease 6 (Homo sapiens, UniProt Q9GZR1); assay: SAR Analysis of small molecule inhibitors of Sentrin-specific protease 6 (SENP6) using a Luminescent assay. [Related pubchem assays (depositor defined):AID2582, AID2599]; format: functional
T4 sequence (Q9GZR1 whole entry): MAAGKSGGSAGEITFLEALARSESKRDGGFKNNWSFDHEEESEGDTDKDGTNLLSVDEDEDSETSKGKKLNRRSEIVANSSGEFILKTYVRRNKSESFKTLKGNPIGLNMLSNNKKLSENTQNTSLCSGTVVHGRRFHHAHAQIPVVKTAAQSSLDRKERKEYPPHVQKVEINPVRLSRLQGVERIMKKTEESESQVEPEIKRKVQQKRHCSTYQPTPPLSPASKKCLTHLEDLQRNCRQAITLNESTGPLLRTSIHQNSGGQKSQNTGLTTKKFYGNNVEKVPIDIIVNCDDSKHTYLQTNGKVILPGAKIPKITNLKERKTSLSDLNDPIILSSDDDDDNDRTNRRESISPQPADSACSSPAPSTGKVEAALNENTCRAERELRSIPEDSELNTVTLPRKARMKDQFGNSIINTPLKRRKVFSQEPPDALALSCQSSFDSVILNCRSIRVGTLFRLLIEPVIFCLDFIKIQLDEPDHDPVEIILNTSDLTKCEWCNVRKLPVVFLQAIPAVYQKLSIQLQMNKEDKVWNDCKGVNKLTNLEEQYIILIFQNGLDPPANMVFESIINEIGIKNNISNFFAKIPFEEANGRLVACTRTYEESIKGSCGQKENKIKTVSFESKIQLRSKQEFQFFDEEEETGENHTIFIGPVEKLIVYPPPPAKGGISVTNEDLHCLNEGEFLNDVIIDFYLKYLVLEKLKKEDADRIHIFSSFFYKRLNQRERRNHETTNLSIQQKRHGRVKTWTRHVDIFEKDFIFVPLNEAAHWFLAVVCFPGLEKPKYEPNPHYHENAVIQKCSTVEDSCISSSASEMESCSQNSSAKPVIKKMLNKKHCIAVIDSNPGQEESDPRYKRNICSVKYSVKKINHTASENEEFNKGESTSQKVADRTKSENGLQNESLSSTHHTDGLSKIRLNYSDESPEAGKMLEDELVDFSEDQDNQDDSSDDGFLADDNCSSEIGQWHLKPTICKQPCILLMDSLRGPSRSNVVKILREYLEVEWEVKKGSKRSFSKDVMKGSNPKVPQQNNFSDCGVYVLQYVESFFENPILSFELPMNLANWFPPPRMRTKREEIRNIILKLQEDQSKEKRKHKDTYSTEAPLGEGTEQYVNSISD

[3] = target: T5, Sentrin-specific protease 7 (Homo sapiens, UniProt Q9BQF6); assay: inhibition of human SENP7 cleavage activity – biochemical, luminescence, SAR follow-up (AID 504497); format: functional
T5 sequence (Q9BQF6 whole entry): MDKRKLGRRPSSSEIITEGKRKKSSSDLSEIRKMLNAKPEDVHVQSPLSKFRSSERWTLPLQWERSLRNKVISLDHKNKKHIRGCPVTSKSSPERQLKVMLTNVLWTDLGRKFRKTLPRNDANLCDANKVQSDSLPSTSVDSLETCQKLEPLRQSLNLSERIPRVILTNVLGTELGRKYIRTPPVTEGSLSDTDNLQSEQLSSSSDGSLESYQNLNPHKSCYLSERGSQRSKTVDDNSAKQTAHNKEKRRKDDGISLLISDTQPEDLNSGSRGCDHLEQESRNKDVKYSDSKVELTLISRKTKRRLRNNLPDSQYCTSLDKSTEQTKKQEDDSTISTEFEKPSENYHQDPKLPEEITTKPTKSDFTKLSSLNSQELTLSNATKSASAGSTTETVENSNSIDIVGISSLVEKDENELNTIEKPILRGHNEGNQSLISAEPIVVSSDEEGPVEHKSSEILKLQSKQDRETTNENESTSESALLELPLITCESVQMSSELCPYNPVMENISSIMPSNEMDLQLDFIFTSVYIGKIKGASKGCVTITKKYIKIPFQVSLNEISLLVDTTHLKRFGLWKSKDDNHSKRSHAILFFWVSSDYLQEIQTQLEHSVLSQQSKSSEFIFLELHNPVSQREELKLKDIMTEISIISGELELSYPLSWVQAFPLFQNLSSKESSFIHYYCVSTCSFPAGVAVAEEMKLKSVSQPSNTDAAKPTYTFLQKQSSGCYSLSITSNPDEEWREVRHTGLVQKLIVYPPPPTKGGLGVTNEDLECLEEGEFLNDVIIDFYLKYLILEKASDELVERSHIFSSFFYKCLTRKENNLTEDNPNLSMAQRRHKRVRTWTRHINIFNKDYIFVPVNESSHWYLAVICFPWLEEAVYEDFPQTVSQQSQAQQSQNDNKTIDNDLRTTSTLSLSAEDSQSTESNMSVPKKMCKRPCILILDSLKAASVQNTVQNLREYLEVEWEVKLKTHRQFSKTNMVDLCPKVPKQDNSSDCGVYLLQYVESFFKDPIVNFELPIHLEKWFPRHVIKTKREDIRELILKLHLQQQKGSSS

[4] = target: Luciferin 4-monooxygenase (Photinus pyralis, UniProt P08659); assay: Counter Screen for Luciferase-based Assay Positives. [Related pubchem assays: 620, 618, 411 ]
cells [5] = format: functional, cell-based
[6] = HPDE-C7 pancreatic duct cell viability loss – fluorescence, HTS (AID 430); format: functional, cell-based; details: Homo sapiens
[7] = viability loss of HPDE-C7K cells – cell-based, fluorescence, HTS, primary screen (AID 431); format: functional; details: Homo sapiens
cells [8] = format: functional, cell-based; remark: listed apart in the source
[9] = viability of PTEN-deleted HCT116 cells – cell-based, HCT116 PTEN knockout, dose response (AID 1047); format: functional;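 further: HCT116 colon tumor cells with PTEN knocked out; cells exposed to compound for 60 hours before readout; potency for loss of cell viability measured by luminescence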
HT-1080 = assay: HT1080 cell viability loss – fluorescence readout (AID 620); format: functional, cell-based; details: Homo sapiens
[10] = viability of HCT116 lacking mutant beta-catenin – cell-based, human colon tumor, dose response (AID 1045); format: functional;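 further: HCT116 colon tumor cells with beta catenin knocked out; cells exposed to compound for 60 hours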
[11] = target: T6, Replicative DNA helicase DnaB (Mycobacterium tuberculosis, UniProt P9WMR3); assay: DnaB intein splicing inhibitors, dose response, biochemical, cell-free fluorescence (AID 449749); format: functional
T6 sequence (P9WMR3 whole entry): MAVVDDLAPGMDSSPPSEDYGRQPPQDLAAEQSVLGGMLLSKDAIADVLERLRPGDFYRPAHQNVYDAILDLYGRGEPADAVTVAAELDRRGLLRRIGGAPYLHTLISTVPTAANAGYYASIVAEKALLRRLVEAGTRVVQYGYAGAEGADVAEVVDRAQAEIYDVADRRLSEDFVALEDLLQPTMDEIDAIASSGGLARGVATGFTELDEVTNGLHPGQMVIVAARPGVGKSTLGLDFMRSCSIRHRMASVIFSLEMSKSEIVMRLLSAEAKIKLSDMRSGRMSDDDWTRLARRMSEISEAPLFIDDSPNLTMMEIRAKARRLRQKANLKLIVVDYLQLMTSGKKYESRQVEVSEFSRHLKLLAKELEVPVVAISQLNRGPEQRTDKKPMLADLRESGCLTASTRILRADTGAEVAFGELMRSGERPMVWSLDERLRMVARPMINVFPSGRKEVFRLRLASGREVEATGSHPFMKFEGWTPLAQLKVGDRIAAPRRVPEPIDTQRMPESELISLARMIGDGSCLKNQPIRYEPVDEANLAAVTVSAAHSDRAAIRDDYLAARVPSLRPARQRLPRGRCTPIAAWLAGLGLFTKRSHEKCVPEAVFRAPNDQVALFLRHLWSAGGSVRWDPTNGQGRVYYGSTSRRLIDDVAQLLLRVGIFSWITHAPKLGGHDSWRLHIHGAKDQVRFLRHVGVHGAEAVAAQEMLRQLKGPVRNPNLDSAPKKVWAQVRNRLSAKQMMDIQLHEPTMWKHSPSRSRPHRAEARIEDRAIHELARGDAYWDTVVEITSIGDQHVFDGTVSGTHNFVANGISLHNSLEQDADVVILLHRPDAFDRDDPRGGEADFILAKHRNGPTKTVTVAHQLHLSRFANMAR

Protein RecA = target: T7, Protein RecA (Mycobacterium tuberculosis, UniProt P9WHJ3); assay: Fluorescence Cell-Free Homogeneous Dose Retest to Identify Inhibitors of RecA-Intein Splicing Activity. [Related pubchem assays (depositor defined):AID2097, AID2223, AID489010, AID492950]; format: functional
T7 sequence (P9WHJ3 whole entry): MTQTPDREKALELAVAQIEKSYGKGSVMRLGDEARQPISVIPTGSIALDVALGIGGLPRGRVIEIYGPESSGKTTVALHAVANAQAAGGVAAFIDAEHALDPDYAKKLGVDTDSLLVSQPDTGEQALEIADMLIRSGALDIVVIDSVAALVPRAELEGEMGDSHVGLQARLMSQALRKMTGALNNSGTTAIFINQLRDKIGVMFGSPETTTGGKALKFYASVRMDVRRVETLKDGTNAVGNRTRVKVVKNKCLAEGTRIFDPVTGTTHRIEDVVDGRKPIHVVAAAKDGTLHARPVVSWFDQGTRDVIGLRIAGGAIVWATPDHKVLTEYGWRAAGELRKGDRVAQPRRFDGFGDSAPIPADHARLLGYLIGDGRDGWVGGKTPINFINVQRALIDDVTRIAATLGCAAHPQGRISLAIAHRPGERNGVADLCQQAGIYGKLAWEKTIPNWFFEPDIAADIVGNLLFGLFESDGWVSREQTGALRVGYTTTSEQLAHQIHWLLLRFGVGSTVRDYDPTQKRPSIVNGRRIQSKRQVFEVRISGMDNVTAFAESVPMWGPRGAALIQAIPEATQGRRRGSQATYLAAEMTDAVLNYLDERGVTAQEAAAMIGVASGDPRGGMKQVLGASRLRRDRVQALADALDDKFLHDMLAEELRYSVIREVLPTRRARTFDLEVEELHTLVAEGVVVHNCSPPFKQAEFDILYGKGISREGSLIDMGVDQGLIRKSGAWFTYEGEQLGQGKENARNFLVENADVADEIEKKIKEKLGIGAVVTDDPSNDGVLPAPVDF

[12] = reduction of Shn3 3'UTR-driven luciferase in osteoblasts – cell-based, Clone20 osteoblasts, firefly luciferase, cherry-picked, dose response (AID 624132); format: functional;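 further: firefly luciferase luminescence from reporter carrying the Shn3 3'UTR in osteoblasts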
[13] = loss of viability in HepG2 cells – cell-based, CellTiter-Glo, cherry-picked, cytotoxicity control for Shn3 inhibitor project, dose response (AID 624134); format: functional
[14] = non-specific 3'UTR reporter inhibition in Clone20-Shn3RL – cell-based, Renilla luciferase, cherry-picked, counter-screen for Shn3 inhibitor project, dose response (AID 624133); format: functional

Luciferin 4-monooxygenase, sequence (P08659 whole entry): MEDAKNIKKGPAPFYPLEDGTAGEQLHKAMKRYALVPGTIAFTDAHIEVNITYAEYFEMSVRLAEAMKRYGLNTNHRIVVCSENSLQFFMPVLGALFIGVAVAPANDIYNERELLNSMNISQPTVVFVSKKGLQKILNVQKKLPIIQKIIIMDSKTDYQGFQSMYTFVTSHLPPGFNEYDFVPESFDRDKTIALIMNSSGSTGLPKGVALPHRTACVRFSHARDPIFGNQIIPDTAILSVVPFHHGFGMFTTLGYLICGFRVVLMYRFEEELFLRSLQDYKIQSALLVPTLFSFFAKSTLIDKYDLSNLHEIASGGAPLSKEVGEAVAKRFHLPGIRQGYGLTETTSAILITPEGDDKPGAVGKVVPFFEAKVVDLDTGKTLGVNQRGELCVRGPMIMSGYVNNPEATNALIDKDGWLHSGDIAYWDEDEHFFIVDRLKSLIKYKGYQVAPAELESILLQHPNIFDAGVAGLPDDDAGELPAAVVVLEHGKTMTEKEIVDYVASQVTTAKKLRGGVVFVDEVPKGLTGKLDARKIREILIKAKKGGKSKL

Compound | IC50 (Estrogen receptor) | IC50 [1] | IC50 (Caspase-3) | IC50 [2] | IC50 [3] | EC50 [4] | EC50 (cells [5]) | EC50 [6] | EC50 [7] | EC50 (cells [8]) | EC50 [9] | EC50 (HT-1080) | EC50 [10] | AC50 [11] | EC50 (Protein RecA) | AC50 [12] | AC50 [13] | AC50 [14]
CC1CCc2c(sc(NC(=O)c3ccc(Cn4cc(Br)cn4)o3)c2C(N)=O)C1 (stereo not drawn) | > 50 µM (not active) | > 99 µM (inactive) | > 99 µM (inactive) | > 99 µM (inactive) | > 99 µM (inactive) |  |  |  |  |  |  |  |  |  |  |  |  | 
COc1ccccc1-c1cc(C(F)(F)F)nc(S(=O)(=O)CCCC(=O)N2CCOCC2)n1 |  |  |  |  |  | 4.85 µM (active) | > 350 µM (not active) | 9.95 µM (active) | 6.34 µM (active) | > 350 µM (not active) | 19.2 µM (active) | 30.8 µM (active) | 34.4 µM (active) | 8.15 µM (active) | 4.26 µM (active) | 3.02 µM (active) | 23.2 µM (active) | 10.2 µM (active)
